Results published in patent US9828375B2, “4-position substituted pyrazolopyrimidine derivative, and use thereof in drug preparation” (Guangxi Wuzhou Pharmaceuticals (Group) Co., Ltd., priority 2012, dated 2017).

Legend:
c-RAF = c-RAF (Homo sapiens, UniProt P04049); assay: Kinase inhibition activity test, isotope labeling: c-RAF; format: biochemical; conditions: ATP 45 μM; read-out: c-RAF IC50 value (inhibitory activity value)
Description: (§1) The purpose of this experiment was to test the inhibitory activity of the compound of the invention for in vitro kinase with the isotope labeling method (the γ phosphate group on ATP was labeled). In this experiment, the in vitro activity inhibition of such kinases as FLT3, VEGFR2, FLT1, FLT4, RET, c-RAF, B-RAF, c-KIT, PDGFα, PDGFβ, FGFR2, FGFR1, EphA2, EphB2, SRC, ABL, ALK and Met was tested respectively. Staurosporine was reference molecule (or referred to as positive control). The kinase inhibition activity of the test compound was expressed by half-inhibitory concentration (IC50) or the kinase activity inhibition rate of the test compound at a concentration of 10 μM. The IC50 value could be obtained by calculating the kinase activity inhibition rate of the test compound at different concentrations.
(§2) 20 mM 3-(N-morpholinyl)propanesulfonic acid (MOPS); 1 mM ethylenediaminetetraacetic acid (EDTA), 0.01% Brij 35 (Brij-35), 5% glycerol, 0.1% mercaptoethanol, 1 mg/mL bovine serum albumin (BSA), 10 mM manganous dichloride solution (MnCl2), 0.1 mg/mL glutamic acid/tyrosine (4:1) polypeptide (poly(Glu, Tyr)4:1), 50 μM EAIYAAPFAKKK (substrate of FLT3), 0.33 mg/mL myelin basic protein (substrate of VEGFR2), 250 μM KKKSPGEYVNIEFG (substrate of FLT1(h)), 500 μM GGEEEEYFELVKKKK (substrate of FLT4(h)), 250 μM KKKSPGEYVNIEFG (substrate of RET), 0.66 mg/mL myelin basic protein (substrate of C-RAF), 250 μM GGMEDIYFEFMGGKKK (substrate of c-Kit), 250 μM GGMEDIYFEFMGGKKK (substrate of PDGFα), 250 μM KKKSPGEYVNIEFG (substrate of FGFR1), […] GGEEEEYFELVKKKK (substrate of SRC), 50 μM EAIYAAPFAKKK (substrate of ABL), 250 μM KKKSPGEYVNIEFG (substrate of ALK), 250 μM KKKSPGEYVNIEFG (substrate of Met(h)), 10 mM magnesium acetate and γ-^33 P-ATP solution, stop buffer (3% phosphate buffer), washing buffer (75 mM phosphate solution), methanol, Filtermat A membrane, FLT3, VEGFR2, FLT3, VEGFR2, FLT1, FLT4, RET, c-RAF, B-RAF, c-KIT, PDGFRα, PDGFRβ, FGFR2, FGFR1, EphA2, EphB2, SRC, ABL, ALK, Met and other kinases, and the test compounds.
(§3) Buffers (8 mM MOPS with pH value of 7.0, 0.2 mM EDTA and 10 mM MnCl2), (5-10 mU) kinases to be tested (FLT3, VEGFR2, FLT1, FLT4, RET, c-RAF, B-RAF, c-KIT, PDGFRα, PDGFRβ, FGFR2, FGFR1, EphA2, EphB2, SRC, ABL, ALK and Met), substrates of kinases to be tested (refer to experimental materials), 10 mM magnesium acetate and γ-^33 P-ATP solution, and test compounds at different concentrations were added to a reaction tube orderly. […] Reaction was terminated with 5 μL 3% phosphate buffer finally, and 10 μL reaction solution was titrated to the Filtermat A membrane; solution was washed for 3 times with 75 mM phosphate solution with each time lasting 5 minutes, and then washed once with methanol. […]

EphA2 = EphA2 (Homo sapiens, UniProt P29317); assay: Kinase inhibition activity test, isotope labeling: EphA2; format: biochemical; conditions: ATP 155 μM; read-out: EphA2 IC50 value (inhibitory activity value)
Chain of EphA2 (P29317 24-976): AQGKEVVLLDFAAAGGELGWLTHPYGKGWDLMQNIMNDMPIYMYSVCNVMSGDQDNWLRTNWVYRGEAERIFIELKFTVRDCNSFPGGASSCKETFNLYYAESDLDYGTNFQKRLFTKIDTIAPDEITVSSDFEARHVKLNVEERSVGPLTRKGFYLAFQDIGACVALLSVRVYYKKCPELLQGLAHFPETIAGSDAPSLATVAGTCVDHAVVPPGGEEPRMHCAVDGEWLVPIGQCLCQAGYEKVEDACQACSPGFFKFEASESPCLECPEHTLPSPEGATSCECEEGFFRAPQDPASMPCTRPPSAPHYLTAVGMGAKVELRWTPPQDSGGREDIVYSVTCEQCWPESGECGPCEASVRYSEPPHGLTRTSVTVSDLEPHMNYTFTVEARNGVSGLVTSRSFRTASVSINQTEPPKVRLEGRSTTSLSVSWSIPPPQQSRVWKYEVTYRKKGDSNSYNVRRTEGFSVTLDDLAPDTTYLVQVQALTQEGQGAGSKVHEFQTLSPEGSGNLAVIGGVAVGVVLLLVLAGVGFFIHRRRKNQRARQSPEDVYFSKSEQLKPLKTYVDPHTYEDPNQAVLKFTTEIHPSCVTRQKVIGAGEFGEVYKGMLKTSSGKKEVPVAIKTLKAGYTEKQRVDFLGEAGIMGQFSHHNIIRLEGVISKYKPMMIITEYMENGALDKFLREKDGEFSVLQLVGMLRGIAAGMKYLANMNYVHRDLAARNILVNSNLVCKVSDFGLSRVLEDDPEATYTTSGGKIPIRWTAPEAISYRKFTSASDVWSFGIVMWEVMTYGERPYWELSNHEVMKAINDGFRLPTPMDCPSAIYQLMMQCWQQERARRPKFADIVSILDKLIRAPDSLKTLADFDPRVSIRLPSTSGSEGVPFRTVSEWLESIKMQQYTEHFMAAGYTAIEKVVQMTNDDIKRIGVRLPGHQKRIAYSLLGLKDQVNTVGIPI
Description: as §1, §2, §3

Abl/Abl (T315I)(h) = assay: Kinase inhibition activity test, isotope labeling: Abl; format: biochemical, human; conditions: test compound at a concentration of 10 μM
Description: as §1, §2
Buffers (8 mM MOPS with pH value of 7.0, 0.2 mM EDTA and 10 mM MnCl2), (5-10 mU) kinases to be tested (FLT3, VEGFR2, FLT1, FLT4, RET, c-RAF, B-RAF, c-KIT, PDGFRα, PDGFRβ, FGFR2, FGFR1, EphA2, EphB2, SRC, ABL, ALK and Met), substrates of kinases to be tested (refer to experimental materials), 10 mM magnesium acetate and γ-^33 P-ATP solution, and test compounds at different concentrations were added to a reaction tube orderly. […] Reaction was terminated with 5 μL 3% phosphate buffer finally, and 10 μL reaction solution was titrated to the Filtermat A membrane; solution was washed for 3 times with 75 mM phosphate solution with each time lasting 5 minutes, and then washed once with methanol. Finally, the Filtermat A membrane was dried, and scintillation counting was performed on the membrane, with scintillation count reflecting the phosphorylation degree of the substrates, so that the activity inhibition of kinase could be characterized.

[1] = tested on: human thyrophyma cell line TT; assay: In vitro tumor cell proliferation inhibition (MTT): TT; format: cell-based
From the text: (§4) The purpose of the experiment was to test the inhibition activity of the compounds of the invention for in vitro human tumor cell proliferation by the methyl thiazolyl tetrazolium (MTT) colorimetry.
(§5) Main reagents: RPMI-1640, fetal bovine serum, pancreatin, etc. were purchased from Gibco BRL Company (Invitrogen Corporation, USA) and IMDM medium that was purchased from American Type Culture Collection (ATCC). Methyl thiazolyl tetrazolium (MTT) and dimethyl sulfoxide (DMSO) were products from Sigma Company (USA). Pyrazolopyrimidine derivatives were composed by the inventor. During in vitro experiment, 100% DMSO was prepared into 10 mM storage solution, the solution was stored in a refrigerator at −20° C. for future use, and was diluted to the required concentration with complete culture solution before use.
(§6) Cell line and culture: Human leukemia cell line MV4-11, Jurkat, K562, human thyrophyma cell line TT, human gastric carcinoma cell line MKN-45, human malignant melanoma cell lines A375 and A875, human pancreatic carcinoma cell line panc-1, human cervical carcinoma cell line HELA, human colorectal carcinoma cell line HCT116, etc. were purchased from American type culture collection and were preserved by this laboratory. All leukemia cell lines (except MV4-11), gastric carcinoma cell lines and thyrophyma cell lines were cultured in RPMI-1640 complete medium containing 10% fetal bovine serum, 100 U/mL penicillin and 100 μg/mL streptomycin at 37° C. in 5% CO2. The remaining cell lines were cultured in DMEM complete medium containing 10% fetal bovine serum (containing 20% MV4-11 cell), 100 U/mL penicillin and 100 µg/mL streptomycin at 37° C. in 5% CO2.
(§7) Cell suspension with cell concentration of 1-2×10^4/mL was adjusted with the complete cell medium and inoculated in a 96-well plate, with each well filled with 200 μl cell suspension that was cultured overnight. On the next day, supernatant was sucked and abandoned (supernatant was sucked upon centrifugation of suspension cells), and then cells were processed with test compounds at gradient concentrations respectively. Meanwhile, a negative control group free from drug and a solvent control group with equal volume were set, and the DMSO concentration was 0.1%. Each dose group was provided with three wells and cultured at 37° C. in 5% CO2. After 72 hours, 20 μl 5 mg/mL MTT reagent was added to each well, and cultured for another 2 to 4 hours, the supernatant was abandoned; 150 μL DMSO was added to each well again, vibrated and mixed evenly for 15 minutes; the absorbance (A) values (proportional to living cell amount) were determined with a microplate reader (λ=570 nm) and averaged. […] Experiment was repeated for 3 times at least. Experimental data were expressed with means, data statistics were tested by t, and P<0.05 means that difference has a statistical significance. The cell proliferation inhibition effects of all compounds as follows are expressed by IC50 or inhibition rate.

[2] = tested on: human cervical carcinoma cell line HELA; assay: In vitro tumor cell proliferation inhibition (MTT): HELA; format: cell-based; conditions: 72 hours
From the text: as §4, §5, §6, §7

Chain of c-RAF (P04049 whole entry): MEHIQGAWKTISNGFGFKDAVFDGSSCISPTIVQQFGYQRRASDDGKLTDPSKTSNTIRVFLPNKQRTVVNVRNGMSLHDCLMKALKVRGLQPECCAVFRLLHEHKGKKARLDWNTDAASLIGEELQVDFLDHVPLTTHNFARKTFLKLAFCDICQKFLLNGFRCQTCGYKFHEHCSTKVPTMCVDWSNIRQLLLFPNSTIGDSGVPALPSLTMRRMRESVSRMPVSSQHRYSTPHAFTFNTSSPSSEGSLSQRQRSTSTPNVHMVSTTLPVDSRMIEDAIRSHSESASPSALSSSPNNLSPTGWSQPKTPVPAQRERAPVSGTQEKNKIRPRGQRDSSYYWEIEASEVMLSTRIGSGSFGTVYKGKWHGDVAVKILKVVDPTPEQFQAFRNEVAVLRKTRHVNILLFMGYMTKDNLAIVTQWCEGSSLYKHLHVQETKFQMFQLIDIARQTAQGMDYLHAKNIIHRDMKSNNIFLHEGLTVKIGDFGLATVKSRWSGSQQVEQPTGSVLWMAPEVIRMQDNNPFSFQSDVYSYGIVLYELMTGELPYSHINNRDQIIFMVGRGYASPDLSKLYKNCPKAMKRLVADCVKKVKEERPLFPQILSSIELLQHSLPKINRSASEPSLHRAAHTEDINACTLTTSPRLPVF

Row | IC50 (c-RAF) | IC50 (EphA2) | Activity inhibition rate Abl/Abl (T315I)(h) (Abl/Abl (T315I)(h)) | IC50 ([1]; 72 hours) | IC50 [2] | Compound | IC50 ([1]; Homo sapiens, 72 h) | IC50 ([2]; Homo sapiens, HeLa)
1 | 72 nM | < 10000 nM | 86% | 3420 nM | < 50000 nM | O=C(Nc1ccc(Oc2ncnc3[nH]ncc23)cc1)Nc1ccc(Cl)c(C(F)(F)F)c1 [4a-2] | – | –
2 | 53 nM | < 10000 nM | >50% | 1020 nM | 3000 to 10000 nM | CC(C)(C)c1cc(NC(=O)Nc2ccc(Oc3ncnc4[nH]ncc34)cc2)on1 [4a-25] | – | –

Row | Compound | IC50 (c-RAF) | IC50 (EphA2) | Activity inhibition rate Abl/Abl (T315I)(h) (Abl/Abl (T315I)(h)) | IC50 ([1]; 72 hours) | IC50 [2] | IC50 ([1]; Homo sapiens, 72 h) | IC50 ([2]; Homo sapiens, HeLa)
3 | O=C(Nc1ccc(Oc2ncnc3[nH]ncc23)cc1)Nc1cccc(C(F)(F)F)c1 [4a-6] | 82 nM | 56 nM | 79% | – | – | 312 nM | < 50000 nM
